Source: publication PMC6439253, “Complete NMR chemical shift assignments of odorant binding protein 22 from the yellow fever mosquito, Aedes aegypti, bound to arachidonic acid” (Biomolecular Nmr Assignments, 2019)
pKd: −log10 of the molar value.

Target: T1, AeOBP22 (odorant binding protein 22) (Aedes aegypti, UniProt Q1HRL7)
T1 construct: mature form, residues 17-138, signal peptide (1-16) removed, added N-terminal initiator Met, no tags (123 residues); monomer; 13C/15N labelled for NMR
T1 sequence (Q1HRL7 17-138): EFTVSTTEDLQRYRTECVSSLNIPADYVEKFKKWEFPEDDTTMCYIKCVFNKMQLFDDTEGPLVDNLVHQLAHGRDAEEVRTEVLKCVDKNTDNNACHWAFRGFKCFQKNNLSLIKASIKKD
Test: fluorescence-based binding assay (preliminary); binding confirmed by NMR

CCCCC/C=C\C/C=C\C/C=C\C/C=C\CCCC(=O)O [arachidonic acid]
pKd: ~6.64
